ChEMBL document CHEMBL1201862, “PubChem BioAssay data set” (2004)
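Exposure lasted 48 hours, with cells grown in 96-well plates and compounds tested at five concentrations. The concentration for 50% growth inhibition is given as GI50.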 Calls of active or inactive are those of the source. Rule as the data show it: active = GI50 up to about 1.1 µM and inactive = higher.

Assays:
Test in all cases: DTP human tumour cell line panel, 48 h
MDA-MB-231 = system: MDA-MB-231
MCF7 = system: MCF7
A498 = system: A498
Malme-3M = system: Malme-3M
UACC-257 = system: UACC-257
TK-10 = system: TK-10
EKVX = system: EKVX
UACC-62 = system: UACC-62
T47D = system: T47D
UO-31 = system: UO-31
RPMI-8226 = system: RPMI-8226
SW-620 = system: SW-620
SK-MEL-2 = system: SK-MEL-2
HCT-15 = system: HCT-15
MOLT-4 = system: MOLT-4
HCT-116 = system: HCT-116
OVCAR-5 = system: OVCAR-5
COLO 205 = system: COLO 205
SK-OV-3 = system: SK-OV-3
SN12C = system: SN12C
CAKI-1 = system: CAKI-1
SF-268 = system: SF-268
RXF 393 = system: RXF 393
MDA-MB-435 = system: MDA-MB-435
K562 = system: K562
SNB-75 = system: SNB-75
Hs-578T = system: Hs-578T
NCI-H522 = system: NCI-H522
HT-29 = system: HT-29
SR = system: SR
PC-3 = system: PC-3
SF-295 = system: SF-295
CCRF-CEM = system: CCRF-CEM
NCI-H460 = system: NCI-H460
SK-MEL-28 = system: SK-MEL-28
OVCAR-4 = system: OVCAR-4
HCC 2998 = system: HCC 2998
NCI-H23 = system: NCI-H23
MDA-N = system: MDA-N
NCI/ADR-RES = system: NCI/ADR-RES
A549 = system: A549
IGROV-1 = system: IGROV-1
HOP-92 = system: HOP-92
HL-60 = system: HL-60
U-251 = system: U-251
KM12 = system: KM12
SF-539 = system: SF-539
SK-MEL-5 = system: SK-MEL-5
LOX IMVI = system: LOX IMVI
786-0 = system: 786-0
OVCAR-8 = system: OVCAR-8
ACHN = system: ACHN
SNB-19 = system: SNB-19
M14 = system: M14
BT-549 = system: BT-549
DU-145 = system: DU-145
NCI-H226 = system: NCI-H226
HOP-62 = system: HOP-62

## Cc1cc(NCc2ccccc2)c2ccccc2[n+]1CCCCCCCCCC[n+]1c(C)cc(NCc2ccccc2)c2ccccc21.[O-][Cl+3]([O-])([O-])[O-].[O-][Cl+3]([O-])([O-])[O-]
MDA-MB-231
  GI50: 472 nM (active)
MCF7
  GI50: 318 nM (active)
A498
  GI50: 883 nM (active)
Malme-3M
  GI50: 4060 nM (inactive)
UACC-257
  GI50: 274 nM (active)
TK-10
  GI50: 1210 nM (inactive)
EKVX
  GI50: 1190 nM (inactive)
UACC-62
  GI50: 310 nM (active)
T47D
  GI50: 321 nM (active)
UO-31
  GI50: 1860 nM (inactive)
RPMI-8226
  GI50: 124 nM (active)
SW-620
  GI50: 752 nM (active)
SK-MEL-2
  GI50: 458 nM (active)
HCT-15
  GI50: 1890 nM
MOLT-4
  GI50: 423 nM (active)
HCT-116
  GI50: 324 nM (active)
OVCAR-5
  GI50: 2190 nM (inactive)
COLO 205
  GI50: 236 nM (active)
SK-OV-3
  GI50: 365 nM (active)
SN12C
  GI50: 279 nM (active)
CAKI-1
  GI50: 1440 nM (inactive)
SF-268
  GI50: 478 nM (active)
RXF 393
  GI50: 1960 nM (inactive)
MDA-MB-435
  GI50: 390 nM (active)
K562
  GI50: 271 nM (active)
SNB-75
  GI50: 205 nM (active)
Hs-578T
  GI50: 650 nM (active)
NCI-H522
  GI50: 19500 nM (inactive)
HT-29
  GI50: 345 nM (active)
SR
  GI50: 223 nM (active)
PC-3
  GI50: 458 nM (active)
SF-295
  GI50: 391 nM (active)
CCRF-CEM
  GI50: 377 nM (active)
NCI-H460
  GI50: 228 nM (active)
SK-MEL-28
  GI50: 710 nM (active)
OVCAR-4
  GI50: 1300 nM (inactive)
HCC 2998
  GI50: 562 nM (active)
NCI-H23
  GI50: 247 nM (active)
MDA-N
  GI50: 374 nM (active)
NCI/ADR-RES
  GI50: 3150 nM (inactive)
A549
  GI50: 394 nM (active)
IGROV-1
  GI50: 2980 nM (inactive)
HOP-92
  GI50: 649 nM (active)
HL-60
  GI50: 265 nM (active)
U-251
  GI50: 96.4 nM (active)
KM12
  GI50: 191 nM (active)
SF-539
  GI50: 308 nM (active)
SK-MEL-5
  GI50: 171 nM (active)
LOX IMVI
  GI50: 238 nM (active)
786-0
  GI50: 653 nM (active)
OVCAR-8
  GI50: 431 nM (active)
ACHN
  GI50: 565 nM (active)
SNB-19
  GI50: 252 nM (active)
M14
  GI50: 1210 nM (inactive)
BT-549
  GI50: 569 nM (active)
DU-145
  GI50: 692 nM (active)

## CN1CCN(C(=S)N2CCN(C)CC2)CC1
MDA-MB-231
  GI50: > 100000 nM (inactive)
MCF7
  GI50: 1080 nM (active)
A498
  GI50: 5620 nM (inactive)
Malme-3M
  GI50: > 100000 nM (inactive)
UACC-257
  GI50: > 100000 nM (inactive)
TK-10
  GI50: > 19700 nM (inactive)
UACC-62
  GI50: 4850 nM (inactive)
T47D
  GI50: 2110 nM (inactive)
UO-31
  GI50: > 100000 nM (inactive)
RPMI-8226
  GI50: 2060 nM (inactive)
SW-620
  GI50: > 30800 nM (inactive)
SK-MEL-2
  GI50: > 100000 nM (inactive)
HCT-116
  GI50: > 100000 nM (inactive)
NCI-H226
  GI50: > 100000 nM (inactive)
OVCAR-5
  GI50: > 100000 nM (inactive)
COLO 205
  GI50: 1370 nM (inactive)
SK-OV-3
  GI50: > 30100 nM (inactive)
SN12C
  GI50: > 100000 nM (inactive)
CAKI-1
  GI50: > 100000 nM (inactive)
SF-268
  GI50: > 100000 nM (inactive)
RXF 393
  GI50: > 100000 nM (inactive)
MDA-MB-435
  GI50: > 100000 nM (inactive)
HOP-62
  GI50: > 100000 nM (inactive)
K562
  GI50: 7980 nM (inactive)
Hs-578T
  GI50: > 100000 nM (inactive)
NCI-H522
  GI50: 966 nM (active)
HT-29
  GI50: 1730 nM (inactive)
SR
  GI50: 213 nM (active)
PC-3
  GI50: > 29800 nM (inactive)
SF-295
  GI50: > 100000 nM (inactive)
CCRF-CEM
  GI50: 700 nM (active)
NCI-H460
  GI50: 5350 nM (inactive)
SK-MEL-28
  GI50: > 100000 nM (inactive)
OVCAR-4
  GI50: > 65200 nM (inactive)
HCC 2998
  GI50: > 61500 nM (inactive)
NCI-H23
  GI50: > 32100 nM (inactive)
MDA-N
  GI50: > 26600 nM (inactive)
NCI/ADR-RES
  GI50: 25300 nM (inactive)
A549
  GI50: > 100000 nM (inactive)
IGROV-1
  GI50: > 84300 nM (inactive)
HOP-92
  GI50: > 100000 nM (inactive)
HL-60
  GI50: > 100000 nM (inactive)
U-251
  GI50: > 100000 nM (inactive)
KM12
  GI50: > 100000 nM (inactive)
SF-539
  GI50: 10800 nM (inactive)
SK-MEL-5
  GI50: > 26100 nM (inactive)
LOX IMVI
  GI50: > 100000 nM (inactive)
786-0
  GI50: 21900 nM (inactive)
OVCAR-8
  GI50: > 100000 nM (inactive)
ACHN
  GI50: > 100000 nM (inactive)
SNB-19
  GI50: > 100000 nM (inactive)
M14
  GI50: > 48100 nM (inactive)
BT-549
  GI50: > 100000 nM (inactive)
DU-145
  GI50: > 100000 nM (inactive)
